Source: patent US20260013501A1, “HERBICIDAL DERIVATIVES” (SYNGENTA CROP PROTECTION AG, priority 2022, published 2026)

How the values were obtained:
Assay type in all cases: in vivo
Setaria faberi (SETFA) [1] = test: Post-emergence Test (Table B2), SETFA; parameters: key: five-point scale: 5=81-100%, 4=61-80%, 3=41-60%, 2=21-40%, 1=0-20% damage; conditions: rate 250 g/Ha, evaluated after 13 days
Method: (§1) Seeds of a variety of test species are sown in standard soil in pots (Ipomoea hederacea (IPOHE), Zea mays (ZEAMX), Echinochloa crus-galli (ECHCG), Amaranthus palmeri (AMAPA), (Amaranthus retoflexus (AMARE), and (Setaria faberi (SETFA)). After 8 days cultivation under controlled conditions in a glasshouse (at 24° C./16° C., day/night; 14 hours light; 65% humidity), the plants are sprayed with an aqueous spray solution derived from the formulation of the technical active ingredient in acetone/water (50:50) solution containing 0.5% Tween 20 (polyoxyethelyene sorbitan monolaurate, CAS RN 9005-64-5). Rate of application is shown in g/ha in the tables below. The test plants are then grown in a glasshouse under controlled conditions in a glasshouse (at 24° C./16° C., day/night; 14 hours light; 65% humidity) and watered twice daily. After 13 days the test is evaluated for the percentage damage caused to the plant. The biological activities are shown in the following table on a five-point scale (5=81-100%; 4=61-80%; 3=41-60%; 2=21-40%; 1=0-20%; -=not tested).

[2] = tested on: Ipomoea hederacea (IPOHE); test: Pre-emergence Test (Table B1), IPOHE; conditions: evaluated after 13 days
[3] = tested on: Echinochloa crus-galli (ECHCG); test: Post-emergence Test (Table B2), ECHCG; parameters: key: 5-point damage scale: 5=81-100%, 4=61-80%, 3=41-60%, 2=21-40%, 1=0-20%; conditions: evaluated after 13 days
In short: (§2)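 Evaluation 13 days post-spray gives percent plant damage, reported in five 20% bands (1=0-20% up to 5=81-100%). Test species, sown in soil and kept at 24/16 °C day/night with 14 h light, are treated with compound in 50:50 acetone/water plus 0.5% Tween 20, applied per g/ha.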

[4] = tested on: Echinochloa crus-galli (ECHCG); test: Pre-emergence Test (Table B1), ECHCG; conditions: evaluated after 13 days
Zea mays (ZEAMX) [5] = test: Post-emergence Test (Table B2), ZEAMX; parameters: key: 5-point damage scale: 5=81-100%, 4=61-80%, 3=41-60%, 2=21-40%, 1=0-20%; conditions: evaluated after 13 days
In short: as §2

Setaria faberi (SETFA) [6] = test: Pre-emergence Test (Table B1), SETFA; conditions: evaluated after 13 days
[7] = tested on: Amaranthus retoflexus (AMARE); test: Pre-emergence Test (Table B1), AMARE; conditions: evaluated after 13 days
[8] = tested on: Amaranthus retoflexus (AMARE); test: Post-emergence Test (Table B2), AMARE; parameters: key: five-point scale: 5=81-100%, 4=61-80%, 3=41-60%, 2=21-40%, 1=0-20% damage; conditions: rate 1000 g/Ha, evaluated after 13 days
In short: as §2

Zea mays (ZEAMX) [9] = test: Pre-emergence Test (Table B1), ZEAMX; conditions: Rate 1000 g/Ha, evaluated after 13 days
[10] = tested on: Amaranthus palmeri (AMAPA); test: Pre-emergence Test (Table B1), AMAPA; conditions: Rate 1000 g/Ha, evaluated after 13 days
[11] = tested on: Ipomoea hederacea (IPOHE); test: Post-emergence Test (Table B2), IPOHE; parameters: key: five-point scale: 5=81-100%, 4=61-80%, 3=41-60%, 2=21-40%, 1=0-20% damage; conditions: rate 1000 g/Ha, evaluated after 13 days
Method: as §1

CCn1c(Cc2ccccc2C(F)(F)F)cc(=O)c(C(=O)O)c1-c1ccc(Cl)c(Cl)c1 [Compound 11, 2-(3,4-dichlorophenyl)-1-ethyl-4-oxo-6-[[2-(trifluoromethyl)phenyl]methyl]pyridine-3-carboxylic acid]
0: percentage damage caused to the plant, SETFA (Setaria faberi (SETFA) [1]) | Pre-emergence Test, percentage damage caused to the plant (five-point scale), IPOHE ([2]; Rate 250 g/Ha) | percentage damage caused to the plant, ECHCG ([3]; rate 250 g/Ha) | Pre-emergence Test, percentage damage caused to the plant (five-point scale), ECHCG ([4]; Rate 250 g/Ha) | percentage damage caused to the plant, ZEAMX (Zea mays (ZEAMX) [5]; rate 250 g/Ha) | Pre-emergence Test, percentage damage caused to the plant (five-point scale), SETFA (Setaria faberi (SETFA) [6]; Rate 250 g/Ha) | Pre-emergence Test, percentage damage caused to the plant (five-point scale), AMARE ([7]; Rate 250 g/Ha)

CCn1c(Cc2ccc(O)nn2)cc(=O)c(C(=O)O)c1-c1ccc(Cl)c(Cl)c1 [Compound 107, 2-(3,4-dichlorophenyl)-1-ethyl-6-[(6-hydroxypyridazin-3-yl)methyl]-4-oxo-pyridine-3-carboxylic acid]
0: Pre-emergence Test, percentage damage caused to the plant (five-point scale), IPOHE ([2]; Rate 1000 g/Ha) | percentage damage caused to the plant, ECHCG ([3]; rate 1000 g/Ha) | Pre-emergence Test, percentage damage caused to the plant (five-point scale), ECHCG ([4]; Rate 1000 g/Ha) | percentage damage caused to the plant, AMARE [8] | Pre-emergence Test, percentage damage caused to the plant (five-point scale), ZEAMX (Zea mays (ZEAMX) [9]) | percentage damage caused to the plant, ZEAMX (Zea mays (ZEAMX) [5]; rate 1000 g/Ha) | Pre-emergence Test, percentage damage caused to the plant (five-point scale), AMAPA [10] | percentage damage caused to the plant, IPOHE [11] | Pre-emergence Test, percentage damage caused to the plant (five-point scale), SETFA (Setaria faberi (SETFA) [6]; Rate 1000 g/Ha) | Pre-emergence Test, percentage damage caused to the plant (five-point scale), AMARE ([7]; Rate 1000 g/Ha)
